Results: US8835469B2 (Cadila Healthcare Limited, priority 2009, dated 2014)

Molecular target: T1, glucokinase (GK) enzyme (Homo sapiens, UniProt P35557)
T1 sequence (P35557 1-465): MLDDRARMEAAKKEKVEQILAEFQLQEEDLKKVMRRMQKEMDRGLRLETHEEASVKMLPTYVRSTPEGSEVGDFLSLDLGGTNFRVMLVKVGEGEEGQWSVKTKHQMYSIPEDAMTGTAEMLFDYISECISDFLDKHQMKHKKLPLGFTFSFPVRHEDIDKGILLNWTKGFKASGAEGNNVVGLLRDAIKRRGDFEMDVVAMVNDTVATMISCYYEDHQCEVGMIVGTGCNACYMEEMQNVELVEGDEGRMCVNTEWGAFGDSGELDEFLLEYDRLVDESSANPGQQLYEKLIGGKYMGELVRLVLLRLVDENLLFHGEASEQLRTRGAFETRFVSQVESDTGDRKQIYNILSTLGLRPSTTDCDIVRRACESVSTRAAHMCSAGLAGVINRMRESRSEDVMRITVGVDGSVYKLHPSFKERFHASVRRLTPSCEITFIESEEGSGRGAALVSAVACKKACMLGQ
Experiment: In-vitro glucokinase (GK) activation assay (coupled with glucose-6-phosphate dehydrogenase, absorbance at 340)
Type: biochemical
Conditions: glucose 2.5 mM, read-out: % of GK activity wrt DMSO; for activity at 0.1 µM: 0.1 uM compound; for activity at 1 µM: 1 uM compound; for activity at 5 µM: 5 uM compound; for activity at 10 µM: 10 uM compound
Procedure: The compound of the invention was incubated with glucokinase (GK) enzyme (0.2 units) for 10 minutes in assay buffer at 26° C. After incubation, addition of glucose-6-phosphate dehydrogenase (2.5 units), ATP (1 mM) and glucose (2.5 mM). Absorbance is measured at 340 nm for 15 minutes with 10 second interval using UV transparent plate in kinetic mode on Spectramax-190 at 30° C.

Structure (SMILES)	activity at 0.1 µM [%]	activity at 1 µM [%]	activity at 5 µM [%]	activity at 10 µM [%]
Cc1nc(-c2ccc(Oc3cc(OC4CCN(C)C4=O)cc(C(=O)Nc4nccs4)c3)cc2)no1 (stereo not drawn) [Example 7, 3-(4-(5-Methyl-1,2,4-oxadiazol-3-yl)phenoxy)-5-((1-methyl-2-oxopyrrolidin-3-yl)oxy)-N-(thiazol-2-yl)benzamide]	164	314	356	347
Cc1nnc(-c2cccc(Oc3cc(OC4CCN(C)C4=O)cc(C(=O)Nc4nccs4)c3)c2)o1 (stereo not drawn) [Example 10, 3-(3-(5-Methyl-1,3,4-oxadiazol-2-yl)phenoxy)-5-((1-methyl-2-oxopyrrolidin-3-yl)oxy)-N-(thiazol-2-yl)benzamide]	130	204	232	228
Cc1nnc(-c2ccc(Oc3cc(OC4CCN(C)C4=O)cc(C(=O)n4c(N)nc5ccccc54)c3)cc2)o1 (stereo not drawn) [Example 11, 3-(3-(2-Amino-1H-benzo[d]imidazole-1-carbonyl)-5-(4-(5-methyl-1,3,4-oxadiazol-2-yl)phenoxy)phenoxy)-1-methylpyrrolidin-2-one]	101	109	130	148
Cc1nnc(-c2ccc(Oc3cc(OC4CCN(C)C4=O)cc(C(=O)Nc4cc(C)n(C(=O)OC(C)(C)C)n4)c3)cc2)o1 (stereo not drawn) [Example 12, tert-Butyl 5-methyl-3-(3-(4-(5-methyl-1,3,4-oxadiazol-2-yl)phenoxy)-5-((1-methyl-2-oxopyrrolidin-3-yl)oxy)benzamido)-1H-pyrazole-1-carboxylate]	107	119	139	150

The next lines start with the values.

activity at 0.1 µM [%]	activity at 1 µM [%]	activity at 5 µM [%]	activity at 10 µM [%]	Structure (SMILES)
114	159	287	329	Cc1nnc(-c2ccc(Oc3cc(OC4CCN(C)C4=O)cc(C(=O)Nc4nc(CCN5CCOCC5=O)cs4)c3)cc2)o1 (stereo not drawn) [Example 5, 3-(4-(5-Methyl-1,3,4-oxadiazol-2-yl)phenoxy)-5-((1-methyl-2-oxopyrrolidin-3-yl)oxy)-N-(4-(2-(3-oxomorpholino)ethyl)thiazol-2-yl)benzamide]
100	115	190	275	Cc1nnc(-c2ccc(Oc3cc(OC4CCN(C)C4=O)cc(C(=O)NC4=NCCS4)c3)cc2)o1 (stereo not drawn) [Example 6, N-(4,5-Dihydrothiazol-2-yl)-3-(4-(5-methyl-1,3,4-oxadiazol-2-yl)phenoxy)-5-((1-methyl-2-oxopyrrolidin-3-yl)oxy)benzamide]
134	195	218	235	Cc1nnc(-c2ccc(Oc3cc(OC4CCN(C)C4=O)cc(C(=O)Nc4nnc(C5CC5)s4)c3)cc2)o1 (stereo not drawn) [Example 8, N-(5-Cyclopropyl-1,3,4-thiadiazol-2-yl)-3-(4-(5-methyl-1,3,4-oxadiazol-2-yl)phenoxy)-5-((1-methyl-2-oxopyrrolidin-3-yl)oxy)benzamide]
168	292	345	346	Cc1nnc(-c2ccc(Oc3cc(OC4CCN(C)C4=O)cc(C(=O)Nc4cnccn4)c3)cc2)o1 (stereo not drawn) [Example 9, 3-(4-(5-Methyl-1,3,4-oxadiazol-2-yl)phenoxy)-5-((1-methyl-2-oxopyrrolidin-3-yl)oxy)-N-(pyrazin-2-yl)benzamide]
271	298	288	267	Cc1nnc(-c2ccc(Oc3cc(OC4CCN(C)C4=O)cc(C(=O)Nc4nc5ccccc5s4)c3)cc2)o1 (stereo not drawn) [Example 14, N-(Benzo[d]thiazol-2-yl)-3-(4-(5-methyl-1,3,4-oxadiazol-2-yl)phenoxy)-5-((1-methyl-2-oxopyrrolidin-3-yl)oxy)benzamide]
